Reference: ChEMBL document CHEMBL5360558, “Molecular design, synthesis and anticancer activity of new thiopyrano[2,3-d]thiazoles based on 5-hydroxy-1,4-naphthoquinone (juglone)” (Eur J Med Chem, 2023)
The source made the active and inactive calls. The rule behind the calls is not given here.

Tests used:
[1] = test system: SW-620; assay: Growth inhibition of human SW620 cells incubated for 48 hrs by sulforhodamine B spectrophotometric assay; format: functional
[2] = test system: SR; assay: Growth inhibition of human SR cells incubated for 48 hrs by sulforhodamine B spectrophotometric assay; format: functional
[3] = test system: SK-MEL-28; assay: Growth inhibition against human SK-MEL-28 cells assessed as lethal concentration incubated for 48 hrs by sulforhodamine B spectrophotometric assay; format: functional; settings: read-out: LC50 (the source's name)
[4] = GSH reactivity of compound at pH 7.4 phosphate buffer assessed as GSH-adduct formation at 1 mM incubated for 1 hr in presence of sodium borohydride by spectrophotometric analysis; format: physicochemical; settings: pH 7.4, 1 h, 1000 µM
[5] = test system: SK-MEL-2; assay: Growth inhibition of human SK-MEL-2 cells incubated for 48 hrs by sulforhodamine B spectrophotometric assay; format: functional
[6] = Acute toxicity in C57BL/6 mouse assessed as survival rate at 20 mg/kg,ip administration observed after 22 days; format: organism-based; settings: in vivo, time 22 day
[7] = test system: KB 3-1; assay: Induction of cell morphological changes in human KB 3-1 cells at 1 uM incubated for 24 hrs by Hoechst-33342 staining based fluorescent microscopy analysis; format: functional
[8] = test system: SNB-75; assay: Growth inhibition against human SNB-75 cells assessed as total growth inhibitory concentration incubated for 48 hrs by sulforhodamine B spectrophotometric assay; format: functional
[9] = Cytotoxicity against mouse NIH3T3 cells assessed as cell growth inhibition incubated for 72 hrs by MTT assay; format: toxicity, cell-based
[10] = test system: SF-539; assay: Growth inhibition against human SF-539 cells assessed as total growth inhibitory concentration incubated for 48 hrs by sulforhodamine B spectrophotometric assay; format: functional
[11] = test system: COLO 205; assay: Growth inhibition of human COLO 205 cells incubated for 48 hrs by sulforhodamine B spectrophotometric assay; format: functional
[12] = test system: CCRF-CEM; assay: Induction of cell cycle arrest in human CCRF-CEM cells assessed as RNA synthesis at 4.14 uM incubated for 3 hrs by […] incorporation based flow cytometry analysis (reference value: 31.8 +/- 1.17%); format: functional
[13] = test system: SF-268; assay: Growth inhibition against human SF-268 cells assessed as total growth inhibitory concentration incubated for 48 hrs by sulforhodamine B spectrophotometric assay; format: functional
[14] = test system: OVCAR-4; assay: Growth inhibition of human OVCAR-4 cells incubated for 48 hrs by sulforhodamine B spectrophotometric assay; format: functional
[15] = test system: EKVX; assay: Growth inhibition against human EKVX cells assessed as total growth inhibitory concentration incubated for 48 hrs by sulforhodamine B spectrophotometric assay; format: functional
[16] = test system: HT-29; assay: Growth inhibition against human HT-29 cells assessed as lethal concentration incubated for 48 hrs by sulforhodamine B spectrophotometric assay; format: functional; settings: read-out: LC50 (the source's name)
[17] = test system: SR; assay: Growth inhibition against human SR cells assessed as total growth inhibitory concentration incubated for 48 hrs by sulforhodamine B spectrophotometric assay; format: functional
[18] = test system: UACC-257; assay: Growth inhibition against human UACC-257 cells assessed as lethal concentration incubated for 48 hrs by sulforhodamine B spectrophotometric assay; format: functional; settings: read-out: LC50 (the source's name)
[19] = test system: MDA-MB-231; assay: Growth inhibition against human MDA-MB-231 cells assessed as lethal concentration incubated for 48 hrs by sulforhodamine B spectrophotometric assay; format: functional; settings: read-out: LC50 (the source's name)
[20] = test system: NCI-H322M; assay: Growth inhibition against human NCI-H322M cells assessed as lethal concentration incubated for 48 hrs by sulforhodamine B spectrophotometric assay; format: functional; settings: read-out: LC50 (the source's name)
[21] = test system: OVCAR-5; assay: Growth inhibition of human OVCAR-5 cells incubated for 48 hrs by sulforhodamine B spectrophotometric assay; format: functional
[22] = test system: HCT-15; assay: Growth inhibition against human HCT-15 cells assessed as total growth inhibitory concentration incubated for 48 hrs by sulforhodamine B spectrophotometric assay; format: functional
[23] = test system: HL-60; assay: Growth inhibition against human HL-60 cells assessed as total growth inhibitory concentration incubated for 48 hrs by sulforhodamine B spectrophotometric assay; format: functional
[24] = test system: Hs-578T; assay: Growth inhibition of human Hs-578T cells incubated for 48 hrs by sulforhodamine B spectrophotometric assay; format: functional
[25] = test system: UACC-257; assay: Growth inhibition of human UACC-257 cells incubated for 48 hrs by sulforhodamine B spectrophotometric assay; format: functional
[26] = test system: MDA-MB-468; assay: Growth inhibition against human MDA-MB-468 cells assessed as total growth inhibitory concentration incubated for 48 hrs by sulforhodamine B spectrophotometric assay; format: functional
[27] = Antileukemic activity against human CLL cell assessed as cell growth inhibition incubated for 72 hrs by MTT assay; format: functional, cell-based
[28] = test system: RPMI-8226; assay: Growth inhibition against human RPMI-8226 cells assessed as total growth inhibitory concentration incubated for 48 hrs by sulforhodamine B spectrophotometric assay; format: functional
[29] = test system: T47D; assay: Growth inhibition against human T47D cells assessed as total growth inhibitory concentration incubated for 48 hrs by sulforhodamine B spectrophotometric assay; format: functional
[30] = test system: CCRF-CEM; assay: Induction of cell cycle arrest in human CCRF-CEM cells assessed as accumulation of cells at G0/G1 phase at 20.7 uM incubated for 24 hrs by propidium iodide staining based flow cytometry analysis (reference value: 38.68 +/- 0.75%); format: functional
[31] = test system: BT-549; assay: Growth inhibition against human BT-549 cells assessed as lethal concentration incubated for 48 hrs by sulforhodamine B spectrophotometric assay; format: functional; settings: read-out: LC50 (the source's name)
[32] = test system: MCF7; assay: Growth inhibition against human MCF7 cells assessed as total growth inhibitory concentration incubated for 48 hrs by sulforhodamine B spectrophotometric assay; format: functional
[33] = Cytotoxicity against human HCT116-p53-null cells assessed as cell growth inhibition incubated for 72 hrs by MTT assay; format: functional, cell-based
[34] = test system: SK-MEL-2; assay: Growth inhibition against human SK-MEL-2 cells assessed as lethal concentration incubated for 48 hrs by sulforhodamine B spectrophotometric assay; format: functional; settings: read-out: LC50 (the source's name)
[35] = test system: A498; assay: Growth inhibition of human A498 cells incubated for 48 hrs by sulforhodamine B spectrophotometric assay; format: functional
[36] = test system: MDA-MB-231; assay: Induction of mitochondrial membrane potential loss in human MDA-MB-231 cells at 10 uM incubated for 24 hrs by JC-1 staining based flow cytometry analysis; format: functional
[37] = test system: SK-OV-3; assay: Growth inhibition against human SK-OV-3 cells assessed as total growth inhibitory concentration incubated for 48 hrs by sulforhodamine B spectrophotometric assay; format: functional
[38] = test system: NCI-H460; assay: Growth inhibition against human NCI-H460 cells assessed as total growth inhibitory concentration incubated for 48 hrs by sulforhodamine B spectrophotometric assay; format: functional
[39] = test system: 786-0; assay: Growth inhibition of human 786-0 cells incubated for 48 hrs by sulforhodamine B spectrophotometric assay; format: functional
[40] = test system: CCRF-CEM; assay: Induction of cell cycle arrest in human CCRF-CEM cells assessed as accumulation of cells at S phase at 4.14 uM incubated for 24 hrs by propidium iodide staining based flow cytometry analysis (reference value: 41.09 +/- 0.5%); format: functional
[41] = Acute toxicity in C57BL/6 mouse assessed as ratio of heart weight to body weight at 20 mg/kg,ip administration and observed after 22 days (reference value: 0.62 +/- 0.08); format: organism-based; settings: in vivo, 528 h, time 22 day
[42] = test system: MDA-MB-231; assay: Induction of apoptosis in human MDA-MB-231 cells assessed as increase in caspase 3/7 activity at 5 uM incubated for 24 hrs by flow cytometry analysis; format: functional
[43] = test system: NCI-H522; assay: Growth inhibition against human NCI-H522 cells assessed as lethal concentration incubated for 48 hrs by sulforhodamine B spectrophotometric assay; format: functional; settings: read-out: LC50 (the source's name)

`O=C1C2=C(C(=O)c3c(O)cccc31)C(c1ccco1)c1sc(=O)[nH]c1S2` (stereo not drawn) showed a GI50 [1] of 3.28 µM, a GI50 [2] of 3.05 µM and a CC50 [3] of 7.42 µM. For the same compound, the Activity [4] was “Active”, the GI50 [5] was 3.51 µM and the survival at 528 h [6] was 100%. For the same compound, the Activity [7] was “Active”, the TGI [8] was 7.61 µM and the IC50 at 72 h [9] was 6.07 µM. It also gave a TGI [10] of 3.69 µM, a GI50 [11] of 1.89 µM and an Activity [12] of 23.46%. For the same compound, the TGI [13] was 19.2 µM, the GI50 [14] was 1.79 µM and the TGI [15] was 19.4 µM. For the same compound, the CC50 [16] was > 100 µM, the TGI [17] was 69.5 µM and the CC50 [18] was 6.75 µM. The CC50 [19] was > 100 µM, the CC50 [20] was 5.74 µM and the GI50 [21] was 2.13 µM. The TGI [22] was 3.88 µM, the TGI [23] was 6.09 µM and the GI50 [24] was 2.2 µM. The GI50 [25] was 1.57 µM, the TGI [26] was 6.59 µM and the IC50 [27] was > 50 µM. The TGI [28] was 9.83 µM, the TGI [29] was 13 µM and the Activity [30] was 35.58%. The CC50 [31] was 6.22 µM, the TGI [32] was 3.34 µM and the IC50 [33] was 2.37 µM. For the same compound, the CC50 [34] was 52.9 µM, the GI50 [35] was 3.48 µM and the Activity [36] was 37.3%. The TGI [37] was 29.6 µM, the TGI [38] was 3.48 µM and the GI50 [39] was 7.09 µM. For the same compound, the Activity [40] was 41.83%, the Ratio [41] was 0.51 and the Activity [42] was 10.6%. The CC50 [43] was 26.4 µM.
